According to ChEMBL document CHEMBL1135265, “Squaric acid derivatives as VLA-4 integrin antagonists” (Bioorg Med Chem Lett, 2002):

What was measured:
[1] = target: T1, Integrin alpha-4/beta-1 (Homo sapiens, UniProt P05556+P13612); test: Inhibition of binding of Very late antigen 4/vascular cell adhesion molecule 1 in a cell based ligand binding assay (Jurkat cells)
[2] = Rate constant (k) of clearance from isolated perfused rat liver (IPRL); format: ADME
[3] = target: T1, Integrin alpha-4/beta-1; test: Inhibition of binding of Very late antigen 4/vascular cell adhesion molecule 1 in a protein-based ligand binding assay; format: protein-complex assay
[4] = target: T1, Integrin alpha-4/beta-1; test: Inhibition of very late antigen-4 (VLA-4)/vascular cell adhesion molecule-1(VCAM -1) interaction; format: protein-complex assay
[5] = target: T1, Integrin alpha-4/beta-1; test: Inhibition of Jurkat cell VLA-4 adhesion to VCAM-1; format: cell-based

T1 sequence (P05556 whole entry, the tested form may be a part): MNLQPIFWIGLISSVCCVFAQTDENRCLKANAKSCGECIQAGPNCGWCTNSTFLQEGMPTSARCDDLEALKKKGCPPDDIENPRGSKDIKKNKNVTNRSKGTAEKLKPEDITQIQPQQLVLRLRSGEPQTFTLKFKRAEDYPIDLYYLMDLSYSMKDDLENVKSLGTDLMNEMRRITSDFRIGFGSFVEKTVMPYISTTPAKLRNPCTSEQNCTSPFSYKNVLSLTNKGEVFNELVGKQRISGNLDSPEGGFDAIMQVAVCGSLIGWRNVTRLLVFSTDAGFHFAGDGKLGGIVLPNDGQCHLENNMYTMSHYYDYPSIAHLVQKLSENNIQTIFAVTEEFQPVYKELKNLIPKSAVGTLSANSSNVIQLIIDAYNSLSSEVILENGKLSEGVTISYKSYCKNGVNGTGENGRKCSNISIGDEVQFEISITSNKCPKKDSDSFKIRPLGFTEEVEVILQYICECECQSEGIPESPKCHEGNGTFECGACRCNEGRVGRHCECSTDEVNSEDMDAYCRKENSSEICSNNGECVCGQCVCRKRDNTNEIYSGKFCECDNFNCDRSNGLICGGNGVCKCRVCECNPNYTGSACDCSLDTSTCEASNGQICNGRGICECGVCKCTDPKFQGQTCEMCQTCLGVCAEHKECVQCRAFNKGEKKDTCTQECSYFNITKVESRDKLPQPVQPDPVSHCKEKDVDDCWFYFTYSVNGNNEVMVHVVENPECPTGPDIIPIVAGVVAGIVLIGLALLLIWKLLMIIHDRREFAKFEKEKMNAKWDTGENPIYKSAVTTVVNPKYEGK
T1 sequence (P13612 whole entry, the tested form may be a part): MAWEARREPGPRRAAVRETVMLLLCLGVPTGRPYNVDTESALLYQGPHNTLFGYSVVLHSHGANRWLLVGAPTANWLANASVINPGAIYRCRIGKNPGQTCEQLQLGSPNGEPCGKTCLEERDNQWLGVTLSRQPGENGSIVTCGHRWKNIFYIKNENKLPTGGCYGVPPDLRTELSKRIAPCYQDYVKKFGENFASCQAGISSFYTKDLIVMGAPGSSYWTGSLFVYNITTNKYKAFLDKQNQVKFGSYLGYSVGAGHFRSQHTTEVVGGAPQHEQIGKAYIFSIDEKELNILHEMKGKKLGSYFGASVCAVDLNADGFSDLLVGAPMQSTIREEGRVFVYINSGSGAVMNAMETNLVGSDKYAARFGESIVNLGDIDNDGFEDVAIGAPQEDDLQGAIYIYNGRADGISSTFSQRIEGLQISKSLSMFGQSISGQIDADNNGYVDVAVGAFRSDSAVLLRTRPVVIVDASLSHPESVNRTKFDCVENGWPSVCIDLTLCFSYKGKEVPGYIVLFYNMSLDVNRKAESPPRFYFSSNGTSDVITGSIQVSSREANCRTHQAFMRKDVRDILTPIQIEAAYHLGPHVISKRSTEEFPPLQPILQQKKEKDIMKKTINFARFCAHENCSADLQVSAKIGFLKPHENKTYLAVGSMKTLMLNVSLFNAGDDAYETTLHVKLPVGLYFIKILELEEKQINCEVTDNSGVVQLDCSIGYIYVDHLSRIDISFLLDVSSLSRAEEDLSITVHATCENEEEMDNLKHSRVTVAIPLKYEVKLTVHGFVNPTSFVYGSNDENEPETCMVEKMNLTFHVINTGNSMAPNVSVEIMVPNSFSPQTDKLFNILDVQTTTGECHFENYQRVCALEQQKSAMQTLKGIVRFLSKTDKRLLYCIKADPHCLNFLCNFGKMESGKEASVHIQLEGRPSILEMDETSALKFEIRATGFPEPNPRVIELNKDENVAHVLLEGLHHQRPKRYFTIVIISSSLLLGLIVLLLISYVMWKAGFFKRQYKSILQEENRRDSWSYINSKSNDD

Row | SMILES | IC50 [1] | k el [2] | IC50 [3] | IC50 [4] | IC50 [5]
1 | CCCN(C)c1c(N[C@@H](Cc2ccc(NC(=O)c3c(Cl)cncc3Cl)cc2)C(=O)O)c(=O)c1=O | 13 nM | 0.00125 s⁻¹ | 0.2 nM |  | 
2 | CCN(CC)c1c(N[C@@H](Cc2ccc(Oc3ncccn3)cc2)C(=O)O)c(=O)c1=O | 2300 nM | 0.00075 s⁻¹ | 1.5 nM |  | 
3 | O=C(Nc1ccc(C[C@H](/N=c2/c(N3CCOCC3)c(O)c2=O)C(=O)O)cc1)c1c(Cl)cncc1Cl | 11 nM | 0.00139 s⁻¹ | 0.5 nM |  | 
4 | O=C(Nc1ccc(C[C@H](/N=c2/c(N3CCCCC3)c(O)c2=O)C(=O)O)cc1)c1c(Cl)cncc1Cl | 8.4 nM | 0.00131 s⁻¹ | 0.4 nM |  | 
5 | CCN(CC)c1c(N[C@@H](Cc2ccc(NC(=O)c3c(Cl)cncc3Cl)cc2)C(=O)O)c(=O)c1=O | 3.5 nM | 0.00161 s⁻¹ | 0.4 nM |  | 
6 | CCN(CC)c1c(N[C@@H](Cc2ccc(OCc3c(Cl)cccc3Cl)cc2)C(=O)O)c(=O)c1=O | 12400 nM | 0.00108 s⁻¹ | 25 nM |  | 
7 | O=C(Nc1ccc(C[C@H](/N=c2\c(O)c(O)\c2=N/C2CC2)C(=O)O)cc1)c1c(Cl)cncc1Cl | 250 nM | 0.000444 s⁻¹ | 1.5 nM |  | 
8 | C/N=c1\c(O)c(O)\c1=N/[C@@H](Cc1ccc(NC(=O)c2c(Cl)cncc2Cl)cc1)C(=O)O | 990 nM | 0.00025 s⁻¹ | 0.9 nM |  | 
9 | O=C(Nc1ccc(C[C@H](/N=c2/c(N3CCSCC3)c(O)c2=O)C(=O)O)cc1)c1c(Cl)cncc1Cl | 3.1 nM | 0.00158 s⁻¹ | 0.3 nM |  | 
10 | O=C(Nc1ccc(C[C@H](/N=c2/c(N3CCNCC3)c(O)c2=O)C(=O)O)cc1)c1c(Cl)cncc1Cl | 40 nM | 0.00125 s⁻¹ | 0.4 nM |  | 
11 | CCN(CC)c1c(N[C@@H](Cc2ccc(-c3c(OC)cccc3OC)cc2)C(=O)O)c(=O)c1=O | 180 nM | 0.00108 s⁻¹ | 0.6 nM |  | 
12 | CCN(C)c1c(N[C@@H](Cc2ccc(NC(=O)c3c(Cl)cncc3Cl)cc2)C(=O)O)c(=O)c1=O | 100 nM | 0.00136 s⁻¹ | 0.2 nM |  | 
13 | CCCCN(CCCC)c1c(N[C@@H](Cc2ccc(NC(=O)c3c(Cl)cncc3Cl)cc2)C(=O)O)c(=O)c1=O | 5.7 nM | 0.00183 s⁻¹ | 2 nM |  | 
14 | O=C(Nc1ccc(C[C@H](/N=c2\c(O)c(O)\c2=N/CCCC(F)(F)F)C(=O)O)cc1)c1c(Cl)cncc1Cl | 370 nM | 0.000306 s⁻¹ | 1 nM |  | 
15 | CC(C)(C)/N=c1\c(O)c(O)\c1=N/[C@@H](Cc1ccc(NC(=O)c2c(Cl)cncc2Cl)cc1)C(=O)O | 690 nM | 0.000972 s⁻¹ | 3.5 nM |  | 
16 | C=CC/N=c1\c(O)c(O)\c1=N/[C@@H](Cc1ccc(NC(=O)c2c(Cl)cncc2Cl)cc1)C(=O)O | 120 nM | 0.000111 s⁻¹ | 1 nM |  | 
17 | O=C(Nc1ccc(C[C@H](/N=c2\c(O)c(O)\c2=N/C2CCC2)C(=O)O)cc1)c1c(Cl)cncc1Cl | 155 nM | 0.000139 s⁻¹ | 2.6 nM |  | 
18 | CC(C)/N=c1\c(O)c(O)\c1=N/[C@@H](Cc1ccc(NC(=O)c2c(Cl)cncc2Cl)cc1)C(=O)O | 95 nM | 0.000722 s⁻¹ | 1 nM |  | 
19 | O=C(Nc1ccc(C[C@H](/N=c2\c(O)c(O)\c2=N/C2CCCC2)C(=O)O)cc1)c1c(Cl)cncc1Cl | 290 nM | 0.000139 s⁻¹ | 9 nM |  | 
20 | CCN1CCN(c2c(N[C@@H](Cc3ccc(NC(=O)c4c(Cl)cncc4Cl)cc3)C(=O)O)c(=O)c2=O)CC1 | 60 nM | 0.00103 s⁻¹ | 0.5 nM |  | 
21 | CCC(C)/N=c1\c(O)c(O)\c1=N/[C@@H](Cc1ccc(NC(=O)c2c(Cl)cncc2Cl)cc1)C(=O)O (stereo partly drawn) | 160 nM | 0.000861 s⁻¹ | 0.5 nM |  | 
22 | CN(C)c1c(N[C@@H](Cc2ccc(NC(=O)c3c(Cl)cncc3Cl)cc2)C(=O)O)c(=O)c1=O | 590 nM | 0.00128 s⁻¹ | 0.5 nM |  | 

Further lines, results first:

Row | IC50 [1] | k el [2] | IC50 [3] | IC50 [4] | IC50 [5] | SMILES
23 | 50 nM | 0.000667 s⁻¹ | 0.6 nM |  |  | CCCC(C)/N=c1\c(O)c(O)\c1=N/[C@@H](Cc1ccc(NC(=O)c2c(Cl)cncc2Cl)cc1)C(=O)O (stereo partly drawn)
24 | 90 nM | 0.000389 s⁻¹ |  |  |  | O=C(Nc1ccc(C[C@H](/N=c2\c(O)c(O)\c2=N/CCC(F)(F)F)C(=O)O)cc1)c1c(Cl)cncc1Cl
25 | 845 nM | 0.000306 s⁻¹ | 50 nM |  |  | O=C(Nc1ccc(C[C@H](/N=c2\c(O)c(O)\c2=N/c2ccccc2)C(=O)O)cc1)c1c(Cl)cncc1Cl
26 | 75 nM | 0.0005 s⁻¹ | 1.2 nM |  |  | COCC/N=c1\c(O)c(O)\c1=N/[C@@H](Cc1ccc(NC(=O)c2c(Cl)cncc2Cl)cc1)C(=O)O
27 | 10800 nM |  | 6.7 nM |  |  | CCC/N=c1\c(O)c(O)\c1=N/[C@@H](Cc1ccc(-c2ccccc2OC)cc1)C(=O)O
28 | 320 nM | 0.00117 s⁻¹ | 3.7 nM |  |  | O=C(Nc1ccc(C[C@H](/N=c2\c(O)c(O)\c2=N/Cc2ccccc2)C(=O)O)cc1)c1c(Cl)cncc1Cl
29 | 1160 nM | 0.000611 s⁻¹ | 1.2 nM |  |  | CCN(CC)c1c(N[C@@H](Cc2ccc(-c3ccccc3OC)cc2)C(=O)O)c(=O)c1=O
30 | 120 nM | 2.78e-05 s⁻¹ | 1.5 nM |  |  | CCC/N=c1\c(O)c(O)\c1=N/[C@@H](Cc1ccc(NC(=O)c2c(Cl)cncc2Cl)cc1)C(=O)O
31 | 130 nM | 0.000361 s⁻¹ | 0.4 nM |  |  | CCCC/N=c1\c(O)c(O)\c1=N/[C@@H](Cc1ccc(NC(=O)c2c(Cl)cncc2Cl)cc1)C(=O)O
32 | 225 nM | 0.00025 s⁻¹ | 1 nM |  |  | CCCCC/N=c1\c(O)c(O)\c1=N/[C@@H](Cc1ccc(NC(=O)c2c(Cl)cncc2Cl)cc1)C(=O)O
33 | 710 nM | 0.000194 s⁻¹ | 2.1 nM |  |  | CCC/N=c1\c(O)c(O)\c1=N/[C@@H](Cc1ccc(-c2c(OC)cccc2OC)cc1)C(=O)O
34 |  |  |  | 67 nM | 18300 nM | CCC/N=c1\c(O)c(O)\c1=N/[C@@H](Cc1ccc(OCc2c(Cl)cccc2Cl)cc1)C(=O)O
35 | 8200 nM | 0.000167 s⁻¹ | 6.9 nM |  |  | CCC/N=c1\c(O)c(O)\c1=N/[C@@H](Cc1ccc(Oc2ncccn2)cc1)C(=O)O
36 | 85 nM | 0.000361 s⁻¹ | 0.5 nM |  |  | CC(C)C/N=c1\c(O)c(O)\c1=N/[C@@H](Cc1ccc(NC(=O)c2c(Cl)cncc2Cl)cc1)C(=O)O
37 | 425 nM | 0.000556 s⁻¹ | 0.6 nM |  |  | CC/N=c1\c(O)c(O)\c1=N/[C@@H](Cc1ccc(NC(=O)c2c(Cl)cncc2Cl)cc1)C(=O)O
